Source: patent US20260258025A1, “INHIBITORS OF TDP-43 AND TAU AGGREGATION” (Aquinnah Pharmaceuticals, inc., priority 2023, published 2026)

Each compound was assayed on TDP-43 aggregation (assay: TDP-43 aggregation assay in SY5Y TDP-43WT cells (high content imaging)). Details: Homo sapiens, tetracycline induction 24 hrs, 1 hour compound pre-treatment, sodium arsenite 23 hrs, 8-point dose curve, percentage of cells with TDP-43 aggregates, read-out: IC50, Inhibition of TDP-43 Aggregation.
Type: cell-based
Method: Exemplary compounds disclosed herein were evaluated for efficacy in inhibiting TDP-43 inclusions cellular imaging-based assays.
The cellular model was in human neuroblastoma SH SYSY cells (ATCC, cat #: CRL-2266). The parent cell line was first engineered to stably express a tetracycline repressor protein (designated as TREx-SY5Y cells, customer cell line development by ThermoFisher). Wild-type human TDP-43 with a C-terminus eGFP tag was synthesized and cloned into pcDNA5/TO expression vector (ThermoFisher). The plasmid was transfected into TREx-SY5Y cells using Lipofectamine 2000 and hygromycin resistant colonies were selected. Expression of TDP-43WT::eGFP was examined under fluorescent microscopy and Western blot upon tetracycline induction. The clone that was used for TDP-43 aggregation assay is referred to as SY5Y TDP-43WT cells hereafter.
Compound inhibition of TDP-43 aggregation was tested in an 8-point dose curve in 96-well format. Briefly, TDP-43WT::eGFP expression was induced with […] for 24 hrs (SY5Y TDP-43WT cells). The cells were then pre-treated for 1 hour with exemplary compounds before adding sodium arsenite to a final concentration of […] and incubated for another 23 hrs. At the end of the treatment the cell monolayers were washed in PBS and fixed in 4% paraformaldehyde (PFA), diluted from 16% stock (Electron Microscopy Sciences cat: #15710-S). The inhibitory effect on TDP-43 aggregation was measured using CellInsight CX7 high content imager (ThermoFisher). The percentage of cells with TDP-43 aggregates was calculated based on the total number of cells identified by DAPI staining. An 8-point dose response curve was generated, and the IC50 for each compound tested was determined (Table 3).
In Table 3 below, A indicates an IC50 (nM)<500 nM, B indicates an IC50 (nM) 500 nM to <1000 nM, C indicates an IC50 (nM) 1000 nM to <2000 nM, D indicates an IC50 (nM) 2000 nM to <6000 nM, and E indicates an IC50 (nM) 6000 nM to ≤10000 nM.

| Compound | IC50 [nM] |
| --- | --- |
| N[C@H]1CCN(C(=O)c2sc(-c3ccc(C4CCN(C5CCCCC5)CC4)c(F)c3)cc2Cl)C1 [Compound 269, (S)-(3-aminopyrrolidin-1-yl)(3-chloro-5-(4-(1-cyclohexylpiperidin-4-yl)-3-fluorophenyl)thiophen-2-yl)methanone] | < 500 |
| N[C@H]1CCN(C(=O)c2sc(-c3ccc(C4CCN(C5CCCC5)CC4)c(F)c3)cc2Cl)C1 [Compound 270, (S)-(3-aminopyrrolidin-1-yl)(3-chloro-5-(4-(1-cyclopentylpiperidin-4-yl)-3-fluorophenyl)thiophen-2-yl)methanone] | < 500 |
| Cc1cc(-c2ccc(N3CCN(C4COC4)CC3)cc2)sc1C(=O)N1CC[C@H](N)C1 [Compound 154, (S)-(3-aminopyrrolidin-1-yl)(3-methyl-5-(4-(4-(oxetan-3-yl)piperazin-1-yl)phenyl)thiophen-2-yl)methanone] | 500 to 1000 |
| COCCN1CCC(c2ccc(-c3cc(Cl)c(C(=O)N4CC[C@H](N)C4)s3)cc2Cl)CC1 [Compound 253, (S)-(3-aminopyrrolidin-1-yl)(3-chloro-5-(3-chloro-4-(1-(2-methoxyethyl)piperidin-4-yl)phenyl)thiophen-2-yl)methanone] | < 500 |
| Cc1cc(-c2ccc(C3CCN(C4CCNC4)CC3)cc2)sc1C(=O)N1CC[C@H](N)C1 (stereo partly drawn) [Compound 171, ((S)-3-aminopyrrolidin-1-yl)(3-methyl-5-(4-(1-(pyrrolidin-3-yl)piperidin-4-yl)phenyl)thiophen-2-yl)methanone] | 500 to 1000 |
| Cc1cc(-c2ccc(C3CCN(C(C)C)CC3)c(F)c2)sc1C(=O)N1CC[C@H](N)C1 [Compound 282, (S)-(3-aminopyrrolidin-1-yl)(5-(3-fluoro-4-(1-isopropylpiperidin-4-yl)phenyl)-3-methylthiophen-2-yl)methanone] | < 500 |
| CCCc1cc(-c2ccc(C3CCN(C4CCOCC4)CC3)cc2)sc1C(=O)N1CC[C@H](N)C1 [Compound 285, (S)-(3-aminopyrrolidin-1-yl)(3-propyl-5-(4-(1-(tetrahydro-2H-pyran-4-yl)piperidin-4-yl)phenyl)thiophen-2-yl)methanone] | 1000 to 2000 |
| Cc1cc(-c2ccc(C3CCN(C4COC4)CC3)c(F)c2)sc1C(=O)N1CC[C@H](N)C1 [Compound 264, (S)-(3-aminopyrrolidin-1-yl)(5-(3-fluoro-4-(1-(oxetan-3-yl)piperidin-4-yl)phenyl)-3-methylthiophen-2-yl)methanone] | < 500 |
| COCCCN1CCC(c2ccc(-c3cc(Cl)c(C(=O)N4CC[C@H](N)C4)s3)cc2F)CC1 [Compound 268, (S)-(3-aminopyrrolidin-1-yl)(3-chloro-5-(3-fluoro-4-(1-(3-methoxypropyl)piperidin-4-yl)phenyl)thiophen-2-yl)methanone] | < 500 |
| CCc1cc(-c2ccc(C3CCN(C4CCOCC4)CC3)cc2)sc1C(=O)N1CC[C@H](N)C1 [Compound 289, (S)-(3-aminopyrrolidin-1-yl)(3-ethyl-5-(4-(1-(tetrahydro-2H-pyran-4-yl)piperidin-4-yl)phenyl)thiophen-2-yl)methanone] | < 500 |
| Cc1cc(-c2ccc(C3=CCCCC3)cc2)sc1C(=O)N1CC[C@H](N)C1 [Compound 224] | 6000 to 10000 |
| COc1cc(C2CCN(C3CCOCC3)CC2)ccc1-c1cc(C)c(C(=O)N2CC[C@H](N)C2)s1 [Compound 259, (S)-(3-aminopyrrolidin-1-yl)(5-(2-methoxy-4-(1-(tetrahydro-2H-pyran-4-yl)piperidin-4-yl)phenyl)-3-methylthiophen-2-yl)methanone] | 2000 to 6000 |
| CC(C)N1CCC(c2ccc(-c3cc(Cl)c(C(=O)N4CC[C@H](N)C4)s3)cc2F)CC1 [Compound 284, (S)-(3-aminopyrrolidin-1-yl)(3-chloro-5-(3-fluoro-4-(1-isopropylpiperidin-4-yl)phenyl)thiophen-2-yl)methanone] | < 500 |
| Cc1ccc(-c2cc(C)c(C(=O)N3CC[C@H](N)C3)s2)cc1 [Compound 225] | < 500 |
| CN1CCC(c2ccc(-c3cc(Cl)c(C(=O)N4CC[C@H](N)C4)s3)cc2F)CC1 [Compound 280, (S)-(3-aminopyrrolidin-1-yl)(3-chloro-5-(3-fluoro-4-(1-methylpiperidin-4-yl)phenyl)thiophen-2-yl)methanone] | < 500 |
| CCCc1ccc(-c2cc(C)c(C(=O)N3CC[C@H](N)C3)s2)cc1 [Compound 227] | 2000 to 6000 |
| N[C@H]1CCN(C(=O)c2sc(-c3ccc(C4CCN(CCO)CC4)c(F)c3)cc2Cl)C1 [Compound 263, (S)-(3-aminopyrrolidin-1-yl)(3-chloro-5-(3-fluoro-4-(1-(2-hydroxyethyl)piperidin-4-yl)phenyl)thiophen-2-yl)methanone] | < 500 |

| Compound | IC50 [nM] |
| --- | --- |
| Cc1cc(-c2ccc3c(c2)NCCC3)sc1C(=O)N1CC[C@H](N)C1 [Compound 197, (S)-(3-aminopyrrolidin-1-yl)(3-methyl-5-(1,2,3,4-tetrahydroquinolin-7-yl)thiophen-2-yl)methanone] | 1000 to 2000 |
| Cc1cc(-c2ccc(C3CCN(CCO)CC3)c(F)c2)sc1C(=O)N1CC[C@H](N)C1 [Compound 262, (S)-(3-aminopyrrolidin-1-yl)(5-(3-fluoro-4-(1-(2-hydroxyethyl)piperidin-4-yl)phenyl)-3-methylthiophen-2-yl)methanone] | < 500 |
| CCN1CCC(c2ccc(-c3cc(C)c(C(=O)N4CC[C@H](N)C4)s3)cc2F)CC1 [Compound 281, (S)-(3-aminopyrrolidin-1-yl)(5-(4-(1-ethylpiperidin-4-yl)-3-fluorophenyl)-3-methylthiophen-2-yl)methanone] | < 500 |
| C=CCc1cc(-c2ccc(C3CCN(C4CCOCC4)CC3)cc2)sc1C(=O)N1CC[C@H](N)C1 [Compound 286] | < 500 |
| Cc1cc(-c2ccc(C3CCN(C4CSC4)CC3)cc2)sc1C(=O)N1CC[C@H](N)C1 [Compound 172, (S)-(3-aminopyrrolidin-1-yl){3-methyl-5-[4-(1-thietan-3-ylpiperidin-4-yl)phenyl]thiophen-2-yl} methanone] | < 500 |
| CCN1CCC(c2ccc(-c3cc(Cl)c(C(=O)N4CC[C@H](N)C4)s3)cc2F)CC1 [Compound 266, (S)-(3-aminopyrrolidin-1-yl)(3-chloro-5-(4-(1-ethylpiperidin-4-yl)-3-fluorophenyl)thiophen-2-yl)methanone] | < 500 |
| Cc1cc(-c2ccc(C3CCOCC3)cc2)sc1C(=O)N1CC[C@H](N)C1 [Compound 243] | < 500 |
| Cc1cc(-c2ccc(-c3ccccc3)cc2)sc1C(=O)N1CC[C@H](N)C1 [Compound 234] | 2000 to 6000 |
| Cc1cc(-c2ccc(C3CCCCC3)cc2)sc1C(=O)N1CC[C@H](N)C1 [Compound 238] | 6000 to 10000 |
| N[C@H]1CCN(C(=O)c2sc(-c3ccc(C4CCN(C5CCOCC5)CC4)c(Cl)c3)cc2OC(F)(F)F)C1 [Compound 252, (S)-(3-aminopyrrolidin-1-yl)(5-(3-chloro-4-(1-(tetrahydro-2H-pyran-4-yl)piperidin-4-yl)phenyl)-3-(trifluoromethoxy)thiophen-2-yl)methanone] | 6000 to 10000 |
| N[C@H]1CCN(C(=O)c2sc(-c3ccc(C4CCN(C5COC5)CC4)c(F)c3)cc2Cl)C1 [Compound 265, (S)-(3-aminopyrrolidin-1-yl)(3-chloro-5-(3-fluoro-4-(1-(oxetan-3-yl)piperidin-4-yl)phenyl)thiophen-2-yl)methanone] | < 500 |
| COCCN1CCC(c2ccc(-c3cc(C)c(C(=O)N4CC[C@H](N)C4)s3)cc2F)CC1 [Compound 276, (S)-(3-aminopyrrolidin-1-yl)(5-(3-fluoro-4-(1-(2-methoxyethyl)piperidin-4-yl)phenyl)-3-methylthiophen-2-yl)methanone] | < 500 |
| COc1cc(-c2ccc(C3CCN(C4CCOCC4)CC3)c(Cl)c2)sc1C(=O)N1CC[C@H](N)C1 [Compound 272, (S)-(3-aminopyrrolidin-1-yl)(5-(3-chloro-4-(1-(tetrahydro-2H-pyran-4-yl)piperidin-4-yl)phenyl)-3-methoxythiophen-2-yl)methanone] | 1000 to 2000 |
| Cc1cc(-c2ccc(C3CCNCC3)cc2)sc1C(=O)N1CC[C@H](N)C1 [Compound 205, (S)-(3-aminopyrrolidin-1-yl){3-methyl-5-[4-(piperidin-4-yl)phenyl]thiophen-2-yl}methanone] | 500 to 1000 |
| CCc1ccc(-c2cc(C)c(C(=O)N3CC[C@H](N)C3)s2)cc1 [Compound 228] | 500 to 1000 |
| Cc1cc(-c2ccc3c(c2)CCCC3)sc1C(=O)N1CC[C@H](N)C1 [Compound 247] | 6000 to 10000 |
| CCc1ccc(-c2cc(C)c(C(=O)N3CC[C@H](N)C3)s2)cc1C [Compound 220] | 6000 to 10000 |
